# Entries after “also recorded” stand apart in the source; their conditions may differ.
# Tests used:
# ferroptosis = experiment: Ferroptosis inhibitor activity; type: cell-based; details: 1 uM threshold activity extrapolated
# Source text: Ferroptosis Inhibitor Activity 1 Um Threshold Activity Extrapolated
# [1] = Hepatocyte stability, rat; type: in vitro ADME; details: rat, hepatocytes, read-out: Rat T1/2
# Source text: (§1) Representative Metabolic Stability Data II, +, Extrapolated.
# Human RIP1 kinase = Human RIP1 kinase (Homo sapiens (Human), UniProt Q13546); experiment: Human RIP1 kinase assay; type: biochemical; details: given as bound or range
# Chain of Human RIP1 kinase (Q13546 whole entry): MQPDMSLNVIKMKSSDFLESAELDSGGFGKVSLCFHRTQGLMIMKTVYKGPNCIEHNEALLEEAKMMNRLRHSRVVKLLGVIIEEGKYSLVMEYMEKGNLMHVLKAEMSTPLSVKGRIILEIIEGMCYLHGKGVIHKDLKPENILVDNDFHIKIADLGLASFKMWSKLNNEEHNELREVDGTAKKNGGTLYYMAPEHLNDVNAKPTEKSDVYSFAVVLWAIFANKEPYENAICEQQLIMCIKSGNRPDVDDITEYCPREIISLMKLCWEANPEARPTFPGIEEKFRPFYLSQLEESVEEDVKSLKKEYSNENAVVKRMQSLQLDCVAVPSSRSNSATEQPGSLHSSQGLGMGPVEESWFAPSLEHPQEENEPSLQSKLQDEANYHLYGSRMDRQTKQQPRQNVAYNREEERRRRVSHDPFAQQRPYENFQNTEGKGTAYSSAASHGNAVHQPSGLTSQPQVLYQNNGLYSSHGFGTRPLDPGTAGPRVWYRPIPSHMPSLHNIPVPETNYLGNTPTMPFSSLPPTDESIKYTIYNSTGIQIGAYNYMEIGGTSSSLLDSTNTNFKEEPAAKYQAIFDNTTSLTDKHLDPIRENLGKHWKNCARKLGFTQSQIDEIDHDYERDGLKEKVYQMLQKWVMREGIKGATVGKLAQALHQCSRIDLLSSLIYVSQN
# Source text: Representative IC50 of hRIP1 Kinase Assay Correlated with Our IC50 of Cell Necrosis Assay: […]
# [2] = Liver microsome stability, mouse; type: in vitro ADME; details: liver microsomes
# Source text: (§2) Representative Metabolic Stability Data I; +, Extrapolated.
# PK in dog = details: in vivo
# [3] = test system: mouse EAE model of multiple sclerosis; experiment: Mouse EAE model of multiple sclerosis; type: in vivo, C57/BL6 mice
# Source text: A mouse EAE model of multiple sclerosis was established by immunizing C57/BL6 mice with MOG35-55 (amino acids 35-55 of myelin oligodendrocyte glycoprotein) to induce autoimmune reaction to the myelin of the CNS. Immune reaction causes damage to the myelin, and subsequently the neurons, resulting in animal paralysis.
# SIR1-365 was delivered by food at 10 g/kg and FTY-720 was used as a positive control. Mice were feed with FTY-720 containing drinking water or with SIR1-365 containing chow 2 days before 1st immunization for 28 consecutive days. Scoring started at Day 8 post-1st immunization.
# The results of pathological studies indicated myelin destruction of the spinal cord was protected by SIR1-365. Three different spinal cord regions were sectioned and stained with hematoxylin and eosin (H&E), spinal cord damages were scored and quantified. Feeding with SIR1-365 containing food protected spinal cord damage induced by auto-immune reaction in EAE model.
# [4] = Liver microsome stability, mini-pig; type: in vitro ADME; set-up: key to mini-pig T1/2 (min): +, Extrapolated; details: extrapolated
# Source text: as §2
# PK in monkey = details: in vivo
# [5] = Hepatocyte stability, monkey; type: in vitro ADME; details: monkey, hepatocytes, read-out: Monkey T1/2
# Source text: as §1
# [6] = Hepatocyte stability, dog; type: in vitro ADME; details: dog, hepatocytes, read-out: Dog T1/2
# Source text: as §1
# PK in rat = experiment: PK in rat; set-up: species or system SD rat; details: Sprague-Dawley, in vivo; for half-life / bioavailability: rat
# Source text: Representative PK Date of Pro-Drug Compounds
# [7] = test system: TNF-α-induced SIRS in mice; experiment: Mouse SIRS model (TNF-α-induced mortality); type: in vivo, C57BI/6J mice; details: TNF-α intravenously 2 minutes after
# Method: Effect on Mouse SIRS Model Sepsis preceded by systemic inflammatory response syndrome (SIRS), is a major cause of death in critically ill patients. TNF-α functions as a key mediator in SIRS pathogenesis by the induction of RIP1-RIP3 mediated necroptosis of the liver.
# SIR1-365 was administrated as a single dose by oral gavage at 3 different doses: 1, 3, and 10 mg/kg to C57BI/6J mice. TNF-α was delivered intravenously 2 minutes after SIR1-365 administration. 87.5% (7 of 8) mice in the control group (given vehicle) died within 36 hours, whereas 50% (4 of 8) mice given SIR1-365 at 1 mg/kg and 25% (2 of 8) mice given SIR1-365 at 3 mg/kg died in the same period.
# HT-29 = experiment: EC50 in HT-29; type: cell-based; details: Homo sapiens
# [8] = Hepatocyte stability, mouse; type: in vitro ADME; details: mouse, hepatocytes, read-out: Mouse T1/2
# Source text: as §1
# [9] = Hepatocyte stability, mini-pig; type: in vitro ADME; details: minipig, hepatocytes, read-out: mini-pig T1/2
# Source text: as §1
# [10] = Liver microsome stability, dog; type: in vitro ADME; details: dog, liver microsomes
# Source text: as §2
# [11] = Hepatocyte Stability, comparison table
# [12] = po, 60 mg/kg, SD rat, dose 60 mg/Kg micropower
structure (smiles),measurement,setting,value
"CCC(C)(C)C(=O)N(O)Cc1cc(F)cc(F)c1 [Compound 13, N-(3,5-difluorobenzyl)-N-hydroxy-2,2-dimethylbutanamide]",EC50,ferroptosis,1000 to 10000 nM
same,half-life,[1]; [11],28 min
same,half-life,[1]; Hepatocyte stability,28 min
same,IC50,Human RIP1 kinase,< 100 nM
same,half-life,"[2]; comparison table with WO2016/101885 compounds, read-out: Mouse Liver Microsome T1/2",17 min
same,half-life,"[2]; liver microsome stability, read-out: Mouse T1/2",17.1 min
same,AUC(0-inf),PK in dog; IV 2 mg/kg,1840 ng·h/mL
same,clearance,PK in dog; IV 2 mg/kg,18.5 mL/min/kg
same,half-life,PK in dog; IV 2 mg/kg,61.2 min
same,Vd,"PK in dog; IV 2 mg/kg, read-out: Vdss",0.73 L/kg
same,AUC(0-inf),PK in dog; PO 10 mg/kg,1320 ng·h/mL
same,Cmax,PK in dog; PO 10 mg/kg,981 ng/mL
same,bioavailability,PK in dog; PO 10 mg/kg,14.9%
same,half-life,PK in dog; PO 10 mg/kg,429 min
same,AUC(0-inf),PK in dog; PO 60 mg/kg,2050 ng·h/mL
same,Cmax,PK in dog; PO 60 mg/kg,938 ng/mL
same,bioavailability,PK in dog; PO 60 mg/kg,4.06%
same,half-life,PK in dog; PO 60 mg/kg,339 min
same,AUC(0-inf),PK in dog; PO 150 mg/kg,7230 ng·h/mL
same,Cmax,PK in dog; PO 150 mg/kg,2440 ng/mL
same,bioavailability,PK in dog; PO 150 mg/kg,5.33%
same,half-life,PK in dog; PO 150 mg/kg,714 min
same,EAE-induced myelin / spinal cord damage and animal paralysis,"[3]; 10 g of compound per kilogram food, H&E stained spinal cord sections, listed as SIR1-365",significantly reduced EAE-induced myelin damage and animal paralysis; also recorded: substantial reduction of myelin damage
same,disease score in EAE mice,"[3]; delivered by food at 10 g/kg, 28 consecutive days",significantly reduced the disease score
same,mini-pig T1/2 (min),[4],+
same,AUC(0-inf),PK in monkey; IV 2 mg/kg,1760 ng·h/mL
same,clearance,PK in monkey; IV 2 mg/kg,19.3 mL/min/kg
same,half-life,PK in monkey; IV 2 mg/kg,672 min
same,Vd,"PK in monkey; IV 2 mg/kg, read-out: Vdss",0.93 L/kg
same,AUC(0-inf),PK in monkey; PO 30 mg/kg,6930 ng·h/mL
same,Cmax,PK in monkey; PO 30 mg/kg,3730 ng/mL
same,bioavailability,PK in monkey; PO 30 mg/kg,26.3%
same,half-life,PK in monkey; PO 30 mg/kg,90 min
same,AUC(0-inf),PK in monkey; PO 100 mg/kg,41600 ng·h/mL
same,Cmax,PK in monkey; PO 100 mg/kg,10700 ng/mL
same,bioavailability,PK in monkey; PO 100 mg/kg,47.5%
same,half-life,PK in monkey; PO 100 mg/kg,106 min
same,AUC(0-inf),PK in monkey; PO 200 mg/kg,87200 ng·h/mL
same,Cmax,PK in monkey; PO 200 mg/kg,20600 ng/mL
same,bioavailability,PK in monkey; PO 200 mg/kg,49.5%
same,half-life,PK in monkey; PO 200 mg/kg,130 min
same,half-life,[5]; [11],25 min
same,half-life,[5]; Hepatocyte stability,24.9 min
same,half-life,[6]; [11],13 min
same,half-life,[6]; Hepatocyte stability,12.8 min
same,AUC(0-inf),"PK in rat; Rat, IV 2 mg/kg",540 ng·h/mL
same,clearance,"PK in rat; Rat, IV 2 mg/kg",61.7 mL/min/kg
same,Vd,"PK in rat; Rat, IV 2 mg/kg, read-out: Vdss",1.9 L/kg
same,AUC(0-inf),"PK in rat; Rat, PO 20 mg/kg",1580 ng·h/mL
same,Cmax,"PK in rat; Rat, PO 20 mg/kg",1570 ng/mL
same,AUC(0-inf),"PK in rat; Rat, PO 60 mg/kg",7520 ng·h/mL
same,Cmax,"PK in rat; Rat, PO 60 mg/kg",4910 ng/mL
same,AUC,"PK in rat; SD rat, PO, dose 60 mg/Kg micropower",7520 ng·h/mL
same,half-life,"PK in rat; iv, 2 mg/kg, IV 2 mg/kg",35.4 min
same,bioavailability,"PK in rat; po, 20 mg/kg, PO 20 mg/kg",39.4%
same,half-life,"PK in rat; po, 20 mg/kg, PO 20 mg/kg",84 min
same,bioavailability,"PK in rat; po, 60 mg/kg, PO 60 mg/kg",62.8%
same,half-life,"PK in rat; po, 60 mg/kg, PO 60 mg/kg",72 min
same,bioavailability,PK in rat; [12],62.8%
same,half-life,PK in rat; [12],70.2 min
same,mice died within 36 hours,[7]; single oral gavage dose 1 mg/kg,50%
same,mice died within 36 hours,[7]; single oral gavage dose 3 mg/kg,25%
same,mortality caused by SIRS,"[7]; single oral gavage dose 10 mg/kg, listed as SIR1-365",completely prevented mortality; also recorded: complete prevention
same,EC50,HT-29,28 nM
same,half-life,[8]; [11],20 min
same,half-life,[8]; Hepatocyte stability,20.1 min
same,half-life,[9],21.2 min
same,half-life,"[10]; comparison table with WO2016/101885 compounds, read-out: Dog Liver Microsome T1/2",2 min
same,half-life,"[10]; liver microsome stability, read-out: Dog T1/2",2.34 min

# — patent US12129221B2, “Difluoro phenyl amide RIP1 inhibitor” (SIRONAX LTD, priority 2018, dated 2024)
